Results: the supplement of paper PMC10307832

Key:
Assay in all cases: relative viability (nuclei count vs DMSO), 5 days (fraction); higher = more cells survive
NCI-H1734 = system: NCI-H1734
Summary of the method: (§1)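 Relative viability is defined as nuclei in treated wells over nuclei in vehicle wells. Duplicate plates were run and medians reported. Lung cancer cell lines in 1536-well plates were dosed by pin tool one day after seeding, with one drug or with a fixed anchor-drug dose plus five library-drug doses (not always all listed) in √10 steps, and nuclei were counted after 5 days.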

LCLC-97TM1 = system: LCLC-97TM1
Summary of the method: as §1

NCI-H2085 = system: NCI-H2085
Summary of the method: as §1

SW 1573 = system: SW 1573
Summary of the method: as §1

NCI-H647 = system: NCI-H647
Summary of the method: as §1

EMC-BAC-2 = system: EMC-BAC-2
Summary of the method: as §1

NCI-H2023 = system: NCI-H2023
Summary of the method: as §1

NCI-H661 = system: NCI-H661
Summary of the method: as §1

NCI-H322M = system: NCI-H322M
Summary of the method: as §1

EPLC-272H = system: EPLC-272H
Summary of the method: as §1

NCI-H1993 = system: NCI-H1993
Summary of the method: as §1

LXF-289 = system: LXF-289
Summary of the method: as §1

SK-LU-1 = system: SK-LU-1
Summary of the method: as §1

H3255 = system: H3255
Summary of the method: as §1

NCI-H1915 = system: NCI-H1915
Summary of the method: as §1

HOP-62 = system: HOP-62
Summary of the method: as §1

PC-14 = system: PC-14
Summary of the method: as §1

NCI-H2126 = system: NCI-H2126
Summary of the method: as §1

NCI-H2009 = system: NCI-H2009
Summary of the method: as §1

NCI-H727 = system: NCI-H727
Summary of the method: as §1

NCI-H1563 = system: NCI-H1563
Summary of the method: as §1

NCI-H2347 = system: NCI-H2347
Summary of the method: as §1

Work on `COc1nc(C)cnc1NS(=O)(=O)c1cccnc1-c1ccc(-c2nnco2)cc1` [Zibotentan] + C[C@@H](Oc1cc(-c2cnn(C3CCNCC3)c2)cnc1N)c1c(Cl)ccc(F)c1Cl [Crizotinib] (partner 1 µM) yielded a relative viability (NCI-H1734; first compound 0.08 µM) of 0.808, a relative viability (NCI-H1734; first compound 0.253 µM) of 0.699 and a relative viability (NCI-H1734; first compound 0.8 µM) of 0.724. The relative viability (NCI-H1734; first compound 2.53 µM) was 0.724, the relative viability (LCLC-97TM1; first compound 0.08 µM) was 0.272 and the relative viability (LCLC-97TM1; first compound 0.253 µM) was 0.374. The relative viability (LCLC-97TM1; first compound 0.8 µM) was 0.351, the relative viability (LCLC-97TM1; first compound 2.53 µM) was 0.435 and the relative viability (NCI-H2085; first compound 0.08 µM) was 1.03. It also gave a relative viability (NCI-H2085; first compound 0.253 µM) of 0.815, a relative viability (NCI-H2085; first compound 0.8 µM) of 0.938 and a relative viability (NCI-H2085; first compound 2.53 µM) of 0.925. For the same compound, the relative viability (SW 1573; first compound 0.08 µM) was 0.923, the relative viability (SW 1573; first compound 0.253 µM) was 0.745 and the relative viability (SW 1573; first compound 0.8 µM) was 0.822. For the same compound, the relative viability (SW 1573; first compound 2.53 µM) was 0.856, the relative viability (NCI-H647; first compound 0.08 µM) was 1.04 and the relative viability (NCI-H647; first compound 0.253 µM) was 1.06. For the same compound, the relative viability (NCI-H647; first compound 0.8 µM) was 1.18, the relative viability (NCI-H647; first compound 2.53 µM) was 1.23 and the relative viability (EMC-BAC-2; first compound 0.08 µM) was 0.843. For the same compound, the relative viability (EMC-BAC-2; first compound 0.253 µM) was 0.751, the relative viability (EMC-BAC-2; first compound 0.8 µM) was 0.778 and the relative viability (EMC-BAC-2; first compound 2.53 µM) was 0.754. It also gave a relative viability (NCI-H2023; first compound 0.08 µM) of 0.605, a relative viability (NCI-H2023; first compound 0.253 µM) of 0.475 and a relative viability (NCI-H2023; first compound 0.8 µM) of 0.72. It also gave a relative viability (NCI-H2023; first compound 2.53 µM) of 0.631, a relative viability (NCI-H661; first compound 0.08 µM) of 0.971 and a relative viability (NCI-H661; first compound 0.8 µM) of 1.04. For the same compound, the relative viability (NCI-H661; first compound 2.53 µM) was 0.853, the relative viability (NCI-H322M; first compound 0.08 µM) was 0.932 and the relative viability (NCI-H322M; first compound 0.253 µM) was 0.901. It also gave a relative viability (NCI-H322M; first compound 0.8 µM) of 0.496, a relative viability (NCI-H322M; first compound 2.53 µM) of 0.934 and a relative viability (EPLC-272H; first compound 0.08 µM) of 0.841. It also gave a relative viability (EPLC-272H; first compound 0.253 µM) of 0.841, a relative viability (EPLC-272H; first compound 0.8 µM) of 1.38 and a relative viability (EPLC-272H; first compound 2.53 µM) of 0.951. It also gave a relative viability (NCI-H1993; first compound 0.253 µM) of 0.915, a relative viability (NCI-H1993; first compound 0.8 µM) of 0.73 and a relative viability (NCI-H1993; first compound 2.53 µM) of 1.04. For the same compound, the relative viability (LXF-289; first compound 0.08 µM) was 0.882, the relative viability (LXF-289; first compound 0.253 µM) was 0.804 and the relative viability (LXF-289; first compound 0.8 µM) was 0.822. It also gave a relative viability (LXF-289; first compound 2.53 µM) of 0.805, a relative viability (SK-LU-1; first compound 0.08 µM) of 0.879 and a relative viability (SK-LU-1; first compound 0.253 µM) of 0.841. The relative viability (SK-LU-1; first compound 0.8 µM) was 0.928, the relative viability (SK-LU-1; first compound 2.53 µM) was 1.05 and the relative viability (H3255; first compound 0.08 µM) was 0.846. For the same compound, the relative viability (H3255; first compound 0.253 µM) was 0.841, the relative viability (H3255; first compound 0.8 µM) was 0.975 and the relative viability (H3255; first compound 2.53 µM) was 0.963. The relative viability (NCI-H1915; first compound 0.08 µM) was 0.968, the relative viability (NCI-H1915; first compound 0.253 µM) was 0.879 and the relative viability (NCI-H1915; first compound 0.8 µM) was 0.957. For the same compound, the relative viability (NCI-H1915; first compound 2.53 µM) was 0.945, the relative viability (HOP-62; first compound 0.08 µM) was 0.854 and the relative viability (HOP-62; first compound 0.253 µM) was 0.862. For the same compound, the relative viability (HOP-62; first compound 0.8 µM) was 1.02, the relative viability (HOP-62; first compound 2.53 µM) was 1.06 and the relative viability (PC-14; first compound 0.08 µM) was 0.907. For the same compound, the relative viability (PC-14; first compound 0.253 µM) was 0.882, the relative viability (PC-14; first compound 0.8 µM) was 0.968 and the relative viability (PC-14; first compound 2.53 µM) was 0.899. The relative viability (NCI-H2126; first compound 0.08 µM) was 1.01, the relative viability (NCI-H2126; first compound 0.253 µM) was 0.94 and the relative viability (NCI-H2126; first compound 0.8 µM) was 0.992. The relative viability (NCI-H2126; first compound 2.53 µM) was 1.05, the relative viability (NCI-H2009; first compound 0.08 µM) was 1.05 and the relative viability (NCI-H2009; first compound 0.253 µM) was 0.947. For the same compound, the relative viability (NCI-H2009; first compound 0.8 µM) was 0.995, the relative viability (NCI-H2009; first compound 2.53 µM) was 1.06 and the relative viability (NCI-H727; first compound 0.08 µM) was 0.985. The relative viability (NCI-H727; first compound 0.253 µM) was 0.825, the relative viability (NCI-H727; first compound 0.8 µM) was 0.806 and the relative viability (NCI-H727; first compound 2.53 µM) was 0.844. It also gave a relative viability (NCI-H1563; first compound 0.08 µM) of 0.821, a relative viability (NCI-H1563; first compound 0.253 µM) of 0.512 and a relative viability (NCI-H1563; first compound 0.8 µM) of 0.874. The relative viability (NCI-H1563; first compound 2.53 µM) was 0.895, the relative viability (NCI-H2347; first compound 0.08 µM) was 0.706 and the relative viability (NCI-H2347; first compound 0.253 µM) was 0.476. The relative viability (NCI-H2347; first compound 0.8 µM) was 0.715 and the relative viability (NCI-H2347; first compound 2.53 µM) was 0.672.
